Values belong to the compound of their own block, whether it stands above or below them. Activity calls are given as the source filed them. No cut-off for these calls is given here.
Experiments:
[1] = Metabolic stability in human liver microsomes assessed as clearance at 1 uM in presence of NADPH-regenerating system by LC-MS/MS analysis; format: ADME, Microsome
[2] = Metabolic stability in human liver microsomes assessed as M1 metabolite formation at 1 uM in presence of NADPH-regenerating system by LC-MS/MS analysis; format: ADME, Microsome
[3] = target: T1, Serine/threonine-protein kinase ATR (Homo sapiens, UniProt Q13535); assay: Inhibition of ATR (unknown origin) assessed as remaining activity at 1 uM in presence of [gamma33P-ATP] by radiometric assay
Target sequence in this assay (Q13535 whole entry, looked up): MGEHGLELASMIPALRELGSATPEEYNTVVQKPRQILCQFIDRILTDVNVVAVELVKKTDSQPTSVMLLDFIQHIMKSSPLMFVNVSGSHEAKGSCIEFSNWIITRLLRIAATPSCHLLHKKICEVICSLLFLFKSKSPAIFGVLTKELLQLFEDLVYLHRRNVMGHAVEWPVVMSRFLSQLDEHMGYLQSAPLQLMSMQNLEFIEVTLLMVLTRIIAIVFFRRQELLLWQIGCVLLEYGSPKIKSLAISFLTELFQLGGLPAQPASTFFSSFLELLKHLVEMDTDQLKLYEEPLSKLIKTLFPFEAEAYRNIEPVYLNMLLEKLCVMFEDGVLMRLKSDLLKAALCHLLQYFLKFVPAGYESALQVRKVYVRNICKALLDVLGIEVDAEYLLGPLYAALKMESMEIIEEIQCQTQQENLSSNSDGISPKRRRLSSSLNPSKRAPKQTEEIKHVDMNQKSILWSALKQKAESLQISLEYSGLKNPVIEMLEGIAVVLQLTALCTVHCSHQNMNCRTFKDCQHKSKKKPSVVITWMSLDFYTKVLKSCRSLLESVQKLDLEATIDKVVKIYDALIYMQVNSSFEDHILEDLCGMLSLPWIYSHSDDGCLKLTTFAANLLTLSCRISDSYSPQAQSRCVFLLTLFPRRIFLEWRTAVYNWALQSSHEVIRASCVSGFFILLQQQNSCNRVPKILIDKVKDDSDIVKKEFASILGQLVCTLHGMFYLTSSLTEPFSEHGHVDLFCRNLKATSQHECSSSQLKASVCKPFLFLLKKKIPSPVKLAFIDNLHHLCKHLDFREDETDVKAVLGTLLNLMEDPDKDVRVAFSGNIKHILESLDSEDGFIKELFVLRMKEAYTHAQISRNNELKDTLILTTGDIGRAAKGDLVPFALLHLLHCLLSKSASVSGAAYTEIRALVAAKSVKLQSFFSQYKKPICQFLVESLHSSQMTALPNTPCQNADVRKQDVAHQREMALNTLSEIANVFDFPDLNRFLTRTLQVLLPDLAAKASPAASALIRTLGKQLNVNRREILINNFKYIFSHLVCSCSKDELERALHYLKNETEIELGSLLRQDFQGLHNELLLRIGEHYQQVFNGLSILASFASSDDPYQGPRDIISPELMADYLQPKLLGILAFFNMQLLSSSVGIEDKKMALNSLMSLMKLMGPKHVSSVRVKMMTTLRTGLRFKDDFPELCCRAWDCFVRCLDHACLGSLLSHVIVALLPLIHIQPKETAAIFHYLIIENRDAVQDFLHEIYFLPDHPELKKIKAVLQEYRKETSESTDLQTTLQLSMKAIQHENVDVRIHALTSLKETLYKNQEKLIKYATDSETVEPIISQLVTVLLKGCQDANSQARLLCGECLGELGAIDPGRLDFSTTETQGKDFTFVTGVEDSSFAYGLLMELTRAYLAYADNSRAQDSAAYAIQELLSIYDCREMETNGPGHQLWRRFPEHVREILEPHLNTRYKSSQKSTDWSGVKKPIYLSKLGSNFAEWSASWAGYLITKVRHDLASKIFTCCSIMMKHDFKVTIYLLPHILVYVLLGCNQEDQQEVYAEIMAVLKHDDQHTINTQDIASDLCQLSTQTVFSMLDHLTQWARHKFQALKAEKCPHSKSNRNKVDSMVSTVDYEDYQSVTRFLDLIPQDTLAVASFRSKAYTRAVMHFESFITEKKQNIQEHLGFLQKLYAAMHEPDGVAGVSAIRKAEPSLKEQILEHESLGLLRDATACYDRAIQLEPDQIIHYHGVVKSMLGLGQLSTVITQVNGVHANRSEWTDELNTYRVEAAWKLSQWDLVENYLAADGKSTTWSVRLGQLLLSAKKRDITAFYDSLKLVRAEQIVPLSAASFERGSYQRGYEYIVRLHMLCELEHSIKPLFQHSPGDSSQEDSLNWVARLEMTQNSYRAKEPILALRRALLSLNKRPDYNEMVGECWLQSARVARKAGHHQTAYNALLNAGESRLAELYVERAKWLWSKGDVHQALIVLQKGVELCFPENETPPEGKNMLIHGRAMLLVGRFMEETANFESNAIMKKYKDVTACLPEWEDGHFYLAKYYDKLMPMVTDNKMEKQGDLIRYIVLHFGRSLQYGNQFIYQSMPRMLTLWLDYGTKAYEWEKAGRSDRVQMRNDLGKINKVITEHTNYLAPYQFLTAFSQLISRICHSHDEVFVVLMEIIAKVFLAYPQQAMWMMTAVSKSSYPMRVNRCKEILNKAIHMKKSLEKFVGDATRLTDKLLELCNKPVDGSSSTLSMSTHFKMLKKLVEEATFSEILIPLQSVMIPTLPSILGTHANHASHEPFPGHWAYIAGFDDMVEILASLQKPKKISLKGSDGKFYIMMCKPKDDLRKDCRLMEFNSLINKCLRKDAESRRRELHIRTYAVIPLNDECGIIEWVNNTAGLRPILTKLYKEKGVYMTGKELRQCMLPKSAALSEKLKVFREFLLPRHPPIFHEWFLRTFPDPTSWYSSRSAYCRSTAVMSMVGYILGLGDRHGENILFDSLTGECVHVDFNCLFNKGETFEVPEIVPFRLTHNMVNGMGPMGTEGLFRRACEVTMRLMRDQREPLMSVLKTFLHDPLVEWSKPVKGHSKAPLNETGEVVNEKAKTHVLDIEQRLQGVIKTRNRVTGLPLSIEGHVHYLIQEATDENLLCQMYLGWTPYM

[4] = Metabolic stability in human liver microsomes assessed as half life at 1 uM in presence of NADPH-regenerating system by LC-MS/MS analysis; format: ADME, Microsome
[5] = target: T2, Serine-protein kinase ATM (Homo sapiens, UniProt Q13315); assay: Inhibition of ATM (unknown origin) assessed as remaining activity at 1 uM preincubated with compound for 30 mins followed by substrate addition and measured after 2 hrs by HTRF method relative to control; conditions: time 2.5 hrs
[6] = target: T2, Serine-protein kinase ATM; assay: Inhibition of ATM (unknown origin) assessed as remaining activity at 0.01 uM preincubated with compound for 30 mins followed by substrate addition and measured after 2 hrs by HTRF method relative to control; conditions: time 2.5 hrs
HCT-116 [7] = assay: Inhibition of colony formation in human HCT-116 cells at 0.01 uM preincubated for 1 hr followed by exposure to 2 Gy gamma irradiation and measured after 1 week by crystal violet staining based […] assay relative to control; format: functional; conditions: HCT-116, light or radiation study, time 169 hrs
HCT-116 [8] = assay: Antiproliferative activity against human HCT-116 cells assessed as cell survival at 1 uM incubated for 6 days by MTT assay relative to control; format: functional; conditions: HCT-116, 144 h, time 6 day, read-out: Survival
[9] = target: T2, Serine-protein kinase ATM; assay: Inhibition of ATM (unknown origin) preincubated with compound for 30 mins followed by substrate addition and measured after 2 hrs by HTRF method
HCT-116 [10] = assay: Inhibition of colony formation in human HCT-116 cells preincubated for 1 hr followed by exposure to 2 Gy gamma irradiation and measured after 1 week by crystal violet staining based […] assay; format: functional, cell-based; conditions: HCT-116, light or radiation study
SW-620 [11] = assay: Inhibition of colony formation in human SW620 cells measured after 1 week by crystal violet staining based […] assay; format: functional, cell-based; conditions: SW-620, 168 h
MCF7 = assay: cells; conditions: Homo sapiens, MCF7, 144 h
SW-620 [12] = assay: Antitumor activity against human SW620 cells xenografted in BALB/c nude mouse model assessed as tumor growth inhibition at 40 mg/kg, ip administered once weekly for 21 days by caliper method relative to control; format: functional; conditions: SW-620, 504 h, time 21 day, read-out: TGI
HCT-116 [13] = assay: Induction of DNA damage in human HCT-116 cells assessed as upregulation of gammaH2AX at 25 uM measured after 4 hrs by Western blot analysis; format: functional, cell-based
SW-620 [14] = assay: Antiproliferative activity against human SW620 cells assessed as reduction in cell viability measured after 6 days by MTT assay; format: functional, cell-based; conditions: SW-620, 144 h
HCT-116 [15] = assay: Induction of apoptosis in human HCT-116 cells assessed as viable cells at 5 uM measured after 2 days by AnnexinV-FITC/PI staining based analysis (reference value: 72.8%); format: functional; conditions: HCT-116, 48 h, time 2 day, read-out: Activity
HCT-116 [16] = assay: Induction of apoptosis in human HCT-116 cells assessed as necrotic cells at 5 uM measured after 2 days by AnnexinV-FITC/PI staining based analysis (reference value: 0.64%); format: functional; conditions: time 2 day
[17] = Toxicity in BALB/c nude mouse assessed as reduction in body weight at 40 mg/kg, ip administered once weekly for 21 days relative to control; format: organism-based; parameters: scale not given: the % may be the effect or the level left; conditions: in vivo, 504 h, time 21 day
HCT-116 [18] = assay: Induction of DNA damage in human HCT-116 cells assessed as upregulation of p21 at T145 residue at 25 uM measured after 4 hrs by Western blot analysis; format: functional, cell-based
HCT-116 [19] = assay: Induction of apoptosis in human HCT-116 cells assessed as early apoptotic cells at 5 uM measured after 2 days by AnnexinV-FITC/PI staining based analysis (reference value: 14.4%); format: functional; conditions: time 2 day
HCT-116 [20] = assay: Induction of apoptosis in human HCT-116 cells assessed as late apoptotic cells at 5 uM measured after 2 days by AnnexinV-FITC/PI staining based analysis (reference value: 12.2%); format: functional; conditions: time 2 day
HCT-116 [21] = assay: Induction of DNA damage in human HCT-116 cells assessed as upregulation of ATM phosphorylation at S1981 residue at 25 uM measured after 4 hrs by Western blot analysis; format: functional, cell-based
[22] = target: T1, Serine/threonine-protein kinase ATR; assay: Inhibition of flag tagged- ATR (unknown origin) expressed in Escherichia coli BL21 incubated for 20 mins in presence of ATP
Target sequence in this assay (Q13535 whole entry): as the sequence (Q13535 whole entry, looked up) above

[23] = Inhibition of PIK3 (unknown origin); parameters: species or system Homo sapiens

CLH [1]: 293 mL/min/g | Drug metabolism [2]: Metabolite_Detected | Activity [3]: 102% | half-life at 1 µM [4]: 5 min | Activity [5]: -5%
SMILES: CN(C)CCCOc1ccc(-c2ccc3ncc(NC(=O)NC4CCCCC4)nc3c2)cn1

SMILES: CN(C)CCCOc1ccc(-c2ccc3ncc(N(C)C(=O)Nc4ccccc4Cl)nc3c2)cn1
Activity [6]: 3% | inhibition at 0.01 µM (HCT-116 [7]): 84.4% | viability at 1 µM (HCT-116 [8]): > 83% | IC50 [9]: 0.9 nM | CLH [1]: 43 mL/min/g | Activity [3]: 102% | half-life at 1 µM [4]: 33 min | IC50 (HCT-116 [10]): 4.35 nM

IC50 (SW-620 [11]): 230 nM | IC50 (MCF7): 910 nM | IC50 (SW-620 [14]): 980 nM
SMILES: CCc1c2c(nc3ccc(OC(=O)N4CCC(N5CCCCC5)CC4)cc13)-c1cc3c(c(=O)n1C2)COC(=O)[C@]3(O)CC [IRINOTECAN]
inhibition in vivo at 40 mg/kg (SW-620 [12]): 69.2% | Activity (HCT-116 [13]): inactive | viability at 5 µM (HCT-116 [15]): 52.3% | Activity (HCT-116 [16]): 1.7% | Activity [17]: < 12% | Activity (HCT-116 [18]): Active | Activity (HCT-116 [19]): 26% | Activity (HCT-116 [20]): 19.9% | Activity (HCT-116 [21]): Active

SMILES: Cn1c(=O)n(-c2ccc(C(C)(C)C#N)cc2)c2c3cc(-c4cnc5ccccc5c4)ccc3ncc21 [DACTOLISIB]
IC50 [22]: 21 nM | IC50 [23]: 4 nM

SMILES: CN(C)CCCOc1ccc(-c2ccc3ncc(N(C)C(=O)NC4CCCC4)nc3c2)cn1
Activity [6]: 2% | inhibition at 0.01 µM (HCT-116 [7]): 91.9% | viability at 1 µM (HCT-116 [8]): > 83% | IC50 [9]: 1 nM | CLH [1]: 64 mL/min/g | Activity [3]: 100% | half-life at 1 µM [4]: 22 min | IC50 (HCT-116 [10]): 1.56 nM

SMILES: CN(C)CCCOc1ccc(-c2ccc3ncc(N(C)C(=O)NC4CC4)nc3c2)cn1
Activity [6]: 17% | inhibition at 0.01 µM (HCT-116 [7]): 43.9% | viability at 1 µM (HCT-116 [8]): > 83% | IC50 [9]: 8 nM | CLH [1]: 39 mL/min/g | Activity [3]: 114% | half-life at 1 µM [4]: 41 min | IC50 (HCT-116 [10]): 15.3 nM

SMILES: CN(C)CCCOc1ccc(-c2ccc3ncc(N(C)C(=O)NC4CCCCC4)nc3c2)cn1
Activity [6]: -1% | inhibition at 0.01 µM (HCT-116 [7]): 99.6% | viability at 1 µM (HCT-116 [8]): > 83% | IC50 [9]: 0.9 nM | CLH [1]: 94 mL/min/g | Activity [3]: 94% | half-life at 1 µM [4]: 15 min | IC50 (HCT-116 [10]): 0.54 nM

Reference: ChEMBL document CHEMBL5346961, “Discovery and Evaluation of 3-Quinoxalin Urea Derivatives as Potent, Selective, and Orally Available ATM Inhibitors Combined with Chemotherapy for the Treatment of Cancer via Goal-Oriented Molecule Generation and Virtual Screening” (J Med Chem, 2023)
